According to patent US11639530B2, “CD133 related to anticancer agent resistance in colon cancer and use thereof” (KOREA UNIVERSITY RESEARCH AND BUSINESS FOUNDATION, priority 2019, dated 2023):

What was measured:
[1] = test system: CD133 expression in a liver cancer cell line; assay: CD133 expression (Western blotting) and CD133 ORF promoter luciferase activity after EGF treatment; format: cell-based
Procedure: After treatment with an inhibitor against an EGF downstream signaling molecule, CD133 expression was investigated. Specifically, for transfection and Western blotting, a specific gene (plasmid vector or siRNA) was expressed in cells using a transfection reagent. For general plasmid vector transfection, 24 hours after transfection, cells were harvested, and for siRNA transfection, 48 hours after transfection, cells were harvested. For Western blotting, the harvested cells were lysed in RIPA buffer, and centrifuged at 12,000 g for 20 minutes at 4° C., followed by collecting a supernatant. The collected supernatant was subjected to SDS-PAGE gel electrophoresis, and transferred onto a nitrocellulose membrane, followed by detecting the expression of a desired protein using suitable antibodies. As a result, it was observed that NF-κB is involved in EGF-induced CD133 expression (FIG. 1B). […] Cells were simultaneously transfected with the luciferase vector and a Renilla plasmid vector for quantification. Twenty-four hours after transfection, the cells were treated with EGF for 14 hours, lysed with lysis buffer and centrifuged to obtain a supernatant, and then luciferase activity was measured using the Luminometer 20/20 (FIG. 1D).

liver cancer cell line = assay: Microscopic analysis of microvesicle and TNT formation (WGA-488/DAPI staining, confocal); format: cell-based
Procedure: The relationship between EGF and microvesicle and TNT formation was investigated by microscopic analysis. Specifically, after 14 hours of EGF treatment, cells were fixed with 4% paraformaldeyde and treated with WGA-488 and DAPI for 10 minutes to stain the cell membrane and nucleus. Fluorescence intensity was measured using an LSM700 Meta confocal microscope.

## EGF: epithelial growth factor (EGF)
[1]
  CD133 expression regulation: activates NF-κB and regulates CD133 expression at the transcription level
Liver cancer cell line
  microvesicle and TNT formation between cells: microvesicle and TNT formation increases between cells
